Experimental data as given in US10087197B2, “Selective extraction of anions from solution” (Western Michigan University Research Foundation, priority 2012, dated 2018).

Columns and labels:
[1] = Preliminary selectivity study: self-assembly reaction with competing anions, sulfate determined gravimetrically as BaSO4; settings: for encapsulation of sulfate into the product: 1:54 molar ratio of sulfate and nitrate (or perchlorate) anions, gravimetric as BaSO4 after digestion with 6M HCl; for selectivity for sulfate ion in the presence of halides: in the presence of fluoride, chloride and bromide ions; for preference for sulfate anion over nitrate or perchlorate anions: preliminary selectivity studies
From the text: A self-assembly reaction using a 1:54 molar ratio of sulfate and nitrate (or perchlorate) anions led to the quantitative encapsulation of sulfate into the product, as determined gravimetrically by precipitation as BaSO4 after digestion with 6M HCl. […] The selectivity for sulfate over nitrate, along with the stability at high (basic) pH is especially relevant for the sulfate-extraction efforts during nuclear waste treatment by vitrification, because it allows liquid-liquid extraction. The methods described herein also offer the benefit of recyclability of the sulfate-encapsulating assemblies. The encapsulating host assemblies can be recovered by stirring the dry residue obtained after BaSO4 precipitation (containing CuCl2, Hpz and Et3NHCl) with excess Et3N in DMF. Following such mixing, the characteristic absorption at 599 nm indicates the re-assembly of the [cis-Cu^II(μ-OH)(μ-pz)]n rings.

[2] = Liquid-liquid extraction of sulfate from aqueous nitrate solution at pH 14; settings: 5 M nitrate (NaNO3), 0.044 M sulfate (Na2SO4), 1.25 M NaOH (pH 14); sulfate to nitrate ratio 1:114
From the text: In experiments, an aqueous solution containing 5 M nitrate (NaNO3), 0.044 M sulfate (Na2SO4) and 1.25 M NaOH (pH 14), in which the sulfate to nitrate ratio is 1:114 was combined together with an organic phase containing the stoichiometrically (based on the amount of sulfate) required amounts of nano-jar components.

[3] = Solubility of nano-jar aggregates and polymer in solvents; assay type: physicochemical; settings: dark blue powder; for solubility in a wide variety of solvents: CCl4, CS2, aromatic hydrocarbons, ethers, ketones, esters, nitriles, amines, halogenated and nitro compounds, DMF and DMSO
From the text: The unusually high solubility of (Bu4N)2[SO4^2−⊂{cis-Cu^II(μ-OH)(μ-pz)}6+12+10], and (Bu4N)2[SO4^2−⊂{cis-Cu^II(μ-OH)(μ-pz)}8+14+9]
Production of Host 1 and Host 2 via depolymerisation of [Cu^II(μ-OH)(μ-pz)]∞ includes the steps of combining aqueous solutions of CuSO4 and KOH/Hpz (1:2:1 molar ratio), which results in the formation of a blue-purple precipitate (Scheme 1). […] Elemental analysis results concur with the formula [Cu(OH)(pz)] (for C3H4CuN2O, M.W.=147.62, calculated/found: C, 24.4124.25%; H, 2.73/2.72%; N, 18.9818.40%). The structure of this intractable material likely consists of linear polymeric chains resulting from an all-trans arrangement of the pyrazole and OH moieties about the copper centers, similar to the ones found in [Cu^II(μ-pz)2]∞.
(Bu4N)HSO4 or (Bu4N)2SO4 can be added to a suspension of [Cu(μ-OH)(μ-pz)]∞ in THF or toluene, which leads to the immediate formation of a deep blue solution, and gradual dissolution of the solid. […] Hexane vapor diffusion to a toluene solution is then used to obtain dark blue single crystals in the form of blocks and thin plates.
In particular, one embodiment includes anion-encapsulating aggregates based on encapsulating host assemblies such as {cis-Cu^II(μ-OH)(μ-4-Mepz)}27 (“Host 13”), {cis-Cu^II(μ-OH)(μ-4-Mepz)}28(“Host 14”), {cis-Cu^II(μ-OH)(μ-4-Mepz)}29(“Host 15”), {cis-Cu^II(μ-OH)(μ-4-Mepz)}30(“Host 16”), {cis-Cu^II(μ-OH)(μ-4-Mepz)}31(“Host 17”), and {cis-Cu^II(μ-OH)(μ-4-Mepz)}32(“Host 18”). These alkyl ligand-bound pyrazole anion-encapsulating aggregates include 4-methylpyrazole (“4-Mepz”) and are somewhat soluble in pentane, hexane and cyclohexane. Hosts 13, 15, and 17 selectively encapsulate both carbonate and sulfate anions. Hosts 14 and 18 selectively encapsulate sulfate anions. Host 16 selectively encapsulates carbonate anions. These encapsulating host assemblies form anion-encapsulating aggregates which are capable of encapsulating anions present as contaminants in aqueous-hydrocarbon solvent mixtures, including without limitation in-process nuclear waste.
Another embodiment of an anion-encapsulating host containing a longer chain ligand-bound pyrazole is based on the formation of encapsulating host assemblies including 4-butylpyrazole. Anion-encapsulating aggregates incorporating 4-butylpyrazole are very soluble in pentane, hexane and cyclohexane, and are gradually less soluble in longer hydrocarbons (such as heptane, octane, decalin, and hexadecane). These anion-encapsulating aggregates can be used to encapsulate anions present as contaminants in aqueous-hydrocarbon solvent mixtures, such as those present in in-process nuclear waste.

[4] = Thermal stability of rings on recrystallization from boiling n-butanol; assay type: physicochemical; settings: recrystallization from boiling n-butanol (b.p.=118° C.)
Protocol: (Bu4N)2[SO4^2−⊂{cis-Cu^II(μ-OH)(μ-pz)}28] can also be crystallized from chlorobenzene, 1,2-dichloroethane or n-butylamine by hexane vapor diffusion, and from CH2Cl2 by Et2O vapor diffusion. SO4^2−⊂{cis-Cu^II(μ-OH)(μ-pz)}31 can also be crystallized as the Bu4N-salt from chlorobenzene. Moreover, crystals of (Bu4N)2[SO4^2−⊂{cis-Cu^II(μ-OH)(μ-pz)}28] were also obtained by recrystallization from boiling n-butanol (b.p.=118° C.), indicating stability of the rings at that temperature.

Substance | encapsulation of sulfate into the product [1] | selectivity for sulfate ion in the presence of halides [1] | preference for sulfate anion over nitrate or perchlorate anions [1] | extraction of sulfate anions from aqueous phase to organic phase [2] | solubility in a wide variety of solvents [3] | solubility in alcohols [3] | solubility in aliphatic hydrocarbons and water [3] | stability of the rings at temperature [4]
{cis-Cu^II(μ-OH)(μ-pz)}6+12+10 [Host 1] | quantitative | Partial selectivity | marked preference | effectively and selectively extracted | – | – | – | –
(Bu4N)2[SO4^2−⊂{cis-Cu^II(μ-OH)(μ-pz)}6+12+10] | – | – | – | – | highly soluble | slightly soluble | insoluble | stability
(Bu4N)2[SO4^2−⊂{cis-Cu^II(μ-OH)(μ-pz)}8+14+9] | – | – | – | – | highly soluble | slightly soluble | insoluble | –
{cis-Cu^II(μ-OH)(μ-pz)}8+14+9 [Host 2] | quantitative | Partial selectivity | marked preference | effectively and selectively extracted | – | – | – | –
